Test results published in article PMC10893103, “Cyclodextrin-Enabled Enantioselective Complexation Study of Cathinone Analogs” (Molecules, 2024).

Test: Affinity capillary electrophoresis (ACE), pH 7.4
Conditions: 30 mM phosphate buffer pH 7.4, 25 °C, 15 kV
Text: To assess the CD complex formation capability of the five cathinone derivatives, we devised a screening ACE method tailored to closely mimic physiological conditions. In a preliminary study, the ACE conditions were optimized regarding the type, pH, and concentration of the background electrolyte, the applied voltage, and the injection parameters. […] In order to avoid high Joule heat generation, sufficiently low voltage should be used; thus, after registering the Ohm plot (I-U plot), it was set to 15 kV. Throughout our ACE measurements, corrections for viscosity and ionic strength were systematically implemented to ensure precise determination of complex stability constants.
The CE experiments were performed on a HP ^3DCE and on an Agilent 7100 instrument (Agilent Technologies, Waldbronn, Germany) equipped with a photodiode array detector and the Chemstation software for data handling. Untreated fused silica capillaries (50 µm id, 48.5 cm total, 40 cm effective length) were purchased from Agilent. Conditioning of new capillary was conducted by flushing with 1 M NaOH followed by 0.1 M NaOH and water for 30 min each. Prior to all runs, the capillary was preconditioned by rinsing with BGE (2 min). The temperature of the capillary was set to 25 °C. UV detection was performed at 215 nm, and 15–25 kV voltage was applied. Samples were injected hydrodynamically (150 mbar·sec, optimized in the 50–500 mbar·sec range). The CE-pH measurements were carried out applying 25 kV voltage and 200 mbar·sec injection.
The background electrolyte of the CE-pH measurements contained 25 mM Na2HPO4 and 25 mM Na2B4O7, and the appropriate pH was adjusted with hydrochloric acid. During the ACE measurements, 30 mM phosphate buffer pH 7.4 (30 mM Na2HPO4—NaOH) was used. The running buffer was 20 mM acetic acid adjusting with 1 M Tris the pH to 4.5 during the chiral screening experiments. The BGEs contained CDs at various concentrations (0.25–20 mM) in the ACE experiments and 1-5-10 mM in the chiral method optimization experiments.
Stock solutions of each cathinone analog (mephedrone, flephedrone, 4-MEC, butylone, and MDPV) were prepared separately in methanol (1 mg/ml), and appropriate dilutions with water were used to prepare sample solutions for the CE-pH titration and for the ACE studies applying DMSO as EOF marker, while their mixture was used during the chiral separation studies.
The simplest way to determine the mobility is from the migration times (tmax) read from the electropherograms from which the apparent mobility could be calculated, but more accurate mobility values could be obtained by the determination with the Haarhoff–van der Linde (HVL) function based on Equation (2). (2) HVLδ(t;a0,a1,a2,a3δ)=a0/a2a3δ2πexp[−1/2(t−a1/a2)^2]/1/exp(a3δ)−1+1/2[1+erf(t−a1/2a2)] where a0 is the area of the HVL function, a1 is the position of the Gaussian component, a2 is the standard deviation of the Gaussian component, and a3δ is the peak shape distortion. The application of the HVL function is necessary in the case of accurate ACE measurements because, in several cases, the peaks are distorted due to the complex formation, which makes reading the migration times and calculating the mobility more difficult and imprecise.
The most popular technique for quantifying the analyte–ligand interaction with CE is mobility shift ACE.

Compound | 4-MEC–CD complex stability constant, Kstab/Kstab1 (unresolved or first migrating enantiomer) [M⁻¹] | Butylone–CD complex stability constant, Kstab/Kstab1 (unresolved or first migrating enantiomer) [M⁻¹] | MDPV–CD complex stability constant, Kstab/Kstab1 (unresolved or first migrating enantiomer) [M⁻¹] | Flephedrone–CD complex stability constant, Kstab/Kstab1 (unresolved or first migrating enantiomer) [M⁻¹] | MDPV–CD complex stability constant, Kstab2 (second migrating enantiomer) [M⁻¹] | Mephedrone–CD complex stability constant, Kstab/Kstab1 (unresolved or first migrating enantiomer) [M⁻¹] | Butylone–CD complex stability constant, Kstab2 (second migrating enantiomer) [M⁻¹] | 4-MEC–CD complex stability constant, Kstab2 (second migrating enantiomer) [M⁻¹] | Flephedrone–CD complex stability constant, Kstab2 (second migrating enantiomer) [M⁻¹] | Mephedrone–CD complex stability constant, Kstab2 (second migrating enantiomer) [M⁻¹]
CO[C@H]1[C@H]2O[C@H]3[C@H](OS(=O)(=O)O)[C@@H](OC)[C@@H](O[C@H]4[C@H](OS(=O)(=O)O)[C@@H](OC)[C@@H](O[C@H]5[C@H](OS(=O)(=O)O)[C@@H](OC)[C@@H](O[C@H]6[C@H](OS(=O)(=O)O)[C@@H](OC)[C@@H](O[C@H]7[C@H](OS(=O)(=O)O)[C@@H](OC)[C@@H](O[C@H]8[C@H](OS(=O)(=O)O)[C@@H](OC)[C@@H](O[C@@H]([C@@H]1OS(=O)(=O)O)[C@@H](COS(=O)(=O)O)O2)O[C@@H]8COS(=O)(=O)O)O[C@@H]7COS(=O)(=O)O)O[C@@H]6COS(=O)(=O)O)O[C@@H]5COS(=O)(=O)O)O[C@@H]4COS(=O)(=O)O)O[C@@H]3COS(=O)(=O)O [HMDiSu-β-CD, heptakis-(2-O-methyl, 3,6-O-disulfo)-β-CD] | 260 ± 10 | 265 ± 20 | 165 ± 25 |  |  |  |  |  |  | 
OCCCNC[C@H]1O[C@@H]2O[C@H]3[C@H](O)[C@@H](O)[C@@H](O[C@H]4[C@H](O)[C@@H](O)[C@@H](O[C@H]5[C@H](O)[C@@H](O)[C@@H](O[C@H]6[C@H](O)[C@@H](O)[C@@H](O[C@H]7[C@H](O)[C@@H](O)[C@@H](O[C@H]8[C@H](O)[C@@H](O)[C@@H](O[C@H]1[C@H](O)[C@H]2O)O[C@@H]8CO)O[C@@H]7CO)O[C@@H]6CO)O[C@@H]5CO)O[C@@H]4CO)O[C@@H]3CO [HPA-β-CD, mono-6^A-(3-hydroxy)propylamino-β-CD] | 145 ± 15 | 85 ± 15 | 840 ± 65 | 500 ± 105 | 570 ± 80 | 140 ± 35 |  |  |  | 
CO[C@@H]1[C@@H](OC)[C@H]2O[C@H]3[C@H](OC)[C@@H](OC)[C@@H](O[C@H]4[C@H](OC)[C@@H](OC)[C@@H](O[C@H]5[C@H](OC)[C@@H](OC)[C@@H](O[C@H]6[C@H](OC)[C@@H](OC)[C@@H](O[C@H]7[C@H](OC)[C@@H](OC)[C@@H](O[C@@H]1[C@@H](COS(=O)(=O)O)O2)O[C@@H]7COS(=O)(=O)O)O[C@@H]6COS(=O)(=O)O)O[C@@H]5COS(=O)(=O)O)O[C@@H]4COS(=O)(=O)O)O[C@@H]3COS(=O)(=O)O [HxDMS-α-CD, hexakis-(2,3-O-dimethyl, 6-O-sulfo)-α-CD] | 55 ± 15 | 550 ± 95 | 220 ± 30 | 105 ± 12 |  | 270 ± 110 |  |  |  | 
NC[C@H]1O[C@@H]2O[C@H]3[C@H](O)[C@@H](O)[C@@H](O[C@H]4[C@H](O)[C@@H](O)[C@@H](O[C@H]5[C@H](O)[C@@H](O)[C@@H](O[C@H]6[C@H](O)[C@@H](O)[C@@H](O[C@H]7[C@H](O)[C@@H](O)[C@@H](O[C@H]8[C@H](O)[C@@H](O)[C@@H](O[C@H]1[C@H](O)[C@H]2O)O[C@@H]8CO)O[C@@H]7CO)O[C@@H]6CO)O[C@@H]5CO)O[C@@H]4CO)O[C@@H]3CO [MA-β-CD, mono-(6-N-amino-6-deoxy)-β-CD] | 180 ± 40 | 140 ± 25 | 350 ± 60 | 425 ± 80 | 200 ± 30 | 225 ± 35 | 340 ± 50 |  |  | 
C[N+]1(C[C@H]2O[C@@H]3O[C@H]4[C@H](O)[C@@H](O)[C@@H](O[C@H]5[C@H](O)[C@@H](O)[C@@H](O[C@H]6[C@H](O)[C@@H](O)[C@@H](O[C@H]7[C@H](O)[C@@H](O)[C@@H](O[C@H]8[C@H](O)[C@@H](O)[C@@H](O[C@H]9[C@H](O)[C@@H](O)[C@@H](O[C@H]2[C@H](O)[C@H]3O)O[C@@H]9CO)O[C@@H]8CO)O[C@@H]7CO)O[C@@H]6CO)O[C@@H]5CO)O[C@@H]4CO)CCCCC1 [MePIP-β-CD, mono-6^A-(N-methyl-piperidine)-β-CD] | 50 ± 5 | 40 ± 3 | 85 ± 5 | 40 ± 3 |  | 45 ± 5 |  |  |  | 
CO[C@@H]1[C@@H](OC)[C@H]2O[C@H]3[C@H](OC)[C@@H](OC)[C@@H](O[C@H]4[C@H](OC)[C@@H](OC)[C@@H](O[C@H]5[C@H](OC)[C@@H](OC)[C@@H](O[C@H]6[C@H](OC)[C@@H](OC)[C@@H](O[C@H]7[C@H](OC)[C@@H](OC)[C@@H](O[C@H]8[C@H](OC)[C@@H](OC)[C@@H](O[C@H]9[C@H](OC)[C@@H](OC)[C@@H](O[C@@H]1[C@@H](COS(=O)(=O)O)O2)O[C@@H]9COS(=O)(=O)O)O[C@@H]8COS(=O)(=O)O)O[C@@H]7COS(=O)(=O)O)O[C@@H]6COS(=O)(=O)O)O[C@@H]5COS(=O)(=O)O)O[C@@H]4COS(=O)(=O)O)O[C@@H]3COS(=O)(=O)O [ODMS-γ-CD, octakis-(2,3-O-dimethyl, 6-O-sulfo)-γ-CD] | 110 ± 15 | 145 ± 15 | 105 ± 7 | 90 ± 20 | 110 ± 45 | 200 ± 35 | 165 ± 25 | 125 ± 20 | 70 ± 10 | 140 ± 20
OC[C@H]1O[C@@H]2O[C@H]3[C@H](O)[C@@H](O)[C@@H](O[C@H]4[C@H](O)[C@@H](O)[C@@H](O[C@H]5[C@H](O)[C@@H](O)[C@@H](O[C@H]6[C@H](O)[C@@H](O)[C@@H](O[C@H]7[C@H](O)[C@@H](O)[C@@H](O[C@H]8[C@H](O)[C@@H](O)[C@@H](O[C@H]1[C@H](O)[C@H]2O)O[C@@H]8CO)O[C@@H]7CO)O[C@@H]6CO)O[C@@H]5CN1CCCCC1)O[C@@H]4CO)O[C@@H]3CO [PIP-β-CD, 6-monodeoxy-6-piperidine-β-CD] | < 10 | < 10 | < 10 | < 10 |  | < 10 |  |  |  | 
